Data from patent US7651978B2, “Selective herbicides based on a substituted phenylsulphonylaminocarbonyl-triazolinone” (Arysta LifeScience North America, LLC, priority 1998, dated 2010).
Counter-ions that a name gives are not always drawn.

Tests used:
Capsella bursa-pastoris = assay: Post-emergence tests/outdoors (Example D, Canada and USA); type: in vivo; details: outdoors, 28–30 g of a.i./ha + SAS, 70 WP or 70 WG, 12 tests
Protocol: (§1) Post-Emergence Tests/Outdoors The sodium salt of the compound of the formula (I) was tested under outdoor conditions in the main cultivation areas of summer wheat in Canada and the USA against economically important weeds. The small-plot experiments were carried out on cultivated land under agricultural use, with cultivation and climate conditions which can be considered to be representative for the period of the trial. Areas with particularly extensive weed growth were chosen by way of preference. The active compound was applied across the area by the spray method, with an average droplet size. To produce a useful preparation of active compound, the active compound was formulated as 70 WP or 70 WG (70% w/w water-dispersible powder or granules) and applied with customary amounts of water. Wetting of the plants was improved by addition of a surface-active substance (SAS) in the concentration recommended by the manufacturer. To assess the crop compatibility, from 1 to 8 weeks after the treatment, plant growth inhibitions or […] of the leaf area were assessed in % damage in comparison to the development of the untreated control. At different intervals after the treatment, the herbicidal activity was assessed as % reduction in comparison to the untreated control, based on the weed development. The figures denote: • 0%=no damage of the crops or no herbicidal effect, • 100%=total destruction of the crops or the weeds.

Brassica spp. = assay: as above; type: in vivo; details: outdoors, 28–30 g of a.i./ha + SAS, 70 WP or 70 WG, 27 tests
Protocol: as §1

Sinapis arvensis = assay: as above; type: in vivo; details: outdoors, 28–30 g of a.i./ha + SAS, 70 WP or 70 WG, 48 tests
Protocol: as §1

Avena fatua = assay: as above; type: in vivo; details: outdoors, 28–30 g of a.i./ha + SAS, 70 WP or 70 WG, 263 tests
Protocol: as §1

Amaranthus retroflexus = assay: as above; type: in vivo; details: outdoors, 28–30 g of a.i./ha + SAS, 70 WP or 70 WG, 60 tests
Protocol: as §1

Setaria viridis = assay: as above; type: in vivo; details: outdoors, 28–30 g of a.i./ha + SAS, 70 WP or 70 WG, 102 tests
Protocol: as §1

Thlaspi arvense = assay: as above; type: in vivo; details: outdoors, 28–30 g of a.i./ha + SAS, 70 WP or 70 WG, 45 tests
Protocol: as §1

wheat [1] = assay: Post-emergence tests/outdoors (Example C, Canada), crop damage; type: in vivo, summer wheat; details: in vivo
Protocol: Post-Emergence Tests/Outdoors In addition to the comparative compounds (B) and (D), the sodium salt of the compound of the formula (I) was tested under outdoor conditions in the main cultivation areas of summer wheat in Canada against economically important weeds. The small-plot experiments were carried out on cultivated land under agricultural use. Areas with particularly extensive weed growth were chosen preferably. The active compounds were applied across the area by the spray method, with an average droplet size. To produce a useful preparation of active compound, the active compounds were formulated as 70 WP (70% w/w water-dispersible powder) and applied with customary amounts of water. Wetting of the plants was improved by addition of a surface-active substance (SAS) in the concentrations recommended by the respective manufacturer. To assess the crop compatibility, from 1 to 8 weeks after the treatment, plant growth inhibitions or […] of the leaf area were assessed in % damage in comparison to the development of the untreated control. At different intervals after the treatment, the herbicidal activity was assessed as % reduction in comparison to the untreated control, based on the weed development. The figures denote: • 0%=no damage of the crops or no herbicidal effect, • 100%=total destruction of the crops or the weeds.

Wheat [2] = assay: Post-emergence test/greenhouse; type: in vivo; details: wheat, in vivo, 3 weeks
Protocol: (§2) Post-Emergence Test/Greenhouse [table] To produce a suitable preparation of active compound, 1 part by weight of active compound is mixed with the stated amount of solvent, the stated amount of emulsifier is added and the concentrate is diluted with water to the desired concentration. Test plants which have a height of 5-15 cm are sprayed with the preparation of active compound such that the particular amounts of active compound desired are applied per unit area. The concentration of the spray liquor is chosen so that the particular amounts of active compound desired are applied in 500 ml of water/ha. After three weeks, the degree of damage to the plants is assessed in % damage in comparison to the development of the untreated control. The figures denote: • 0%=no effect (like untreated control) • 100%=total destruction

Setaria [3] = assay: Post-emergence test/greenhouse; type: in vivo; details: after three weeks
Protocol: as §2

Digitaria = assay: Pre-emergence test/greenhouse; type: in vivo; details: 30 g of ai./ha, after three weeks
Protocol: (§3) Pre-Emergence Test/Greenhouse Solvent: 5 parts by weight of acetone Emulsifier: 1 part by weight of alkylaryl polyglycol ether To produce a suitable preparation of active compound, 1 part by weight of active compound is mixed with the stated amount of solvent, the stated amount of emulsifier is added and the concentrate is diluted with water to the desired concentration. Seeds of the test plants are sown in normal soil. After about 24 hours, the soil is sprayed with the preparation of active compound such that the particular amount of active compound desired is applied per unit area. The concentration of the spray liquor is chosen so that the particular amount of active compound desired is applied in 500 ml of water per hectare. After three weeks, the degree of damage to the plants is assessed in % damage in comparison to the development of the untreated control. The figures denote: • 0%=no effect (like untreated control) • 100%=total destruction

Polygonum = assay: Pre-emergence test/greenhouse; type: in vivo; details: 30 g of ai./ha, after three weeks
Protocol: as §3

Wheat [4] = assay: Pre-emergence test/greenhouse; type: in vivo; details: in vivo
Protocol: as §3

Avena = assay: Pre-emergence test/greenhouse; type: in vivo; details: 504 h, after three weeks, read-out: degree of damage, Avena
Protocol: as §3

Alopecurus = assay: Pre-emergence test/greenhouse; type: in vivo; details: 504 h, after three weeks, read-out: degree of damage, Alopecurus
Protocol: as §3

Setaria [5] = assay: Pre-emergence test/greenhouse; type: in vivo; details: after three weeks
Protocol: as §3

Bromus = assay: Pre-emergence test/greenhouse; type: in vivo; details: 30 g of ai./ha, after three weeks
Protocol: as §3

Matricaria = assay: Pre-emergence test/greenhouse; type: in vivo; details: 30 g of ai./ha, after three weeks
Protocol: as §3

Echinochloa = assay: Pre-emergence test/greenhouse; type: in vivo; details: 30 g of ai./ha, after three weeks
Protocol: as §3

COc1nn(C(=O)NS(=O)(=O)c2ccccc2OC(F)(F)F)c(=O)n1C [(I)-Na-salt, 2-(2-trifluoromethoxy-phenylsulphonylaminocarbonyl)-4-methyl-5-methoxy-2,4-dihydro-3H-1,2,4-triazol-3-one]
herbicidal effect (%), Capsella bursa-pastoris (Capsella bursa-pastoris): 90% | herbicidal effect (%), Brassica spp. (Brassica spp.): 93% | herbicidal effect (%), Sinapis arvensis (Sinapis arvensis): 98% | herbicidal effect (%), Avena fatua (Avena fatua): 90% | herbicidal effect (%), Amaranthus retroflexus (Amaranthus retroflexus): 90% | herbicidal effect (%), Setaria viridis (Setaria viridis): 94% | herbicidal effect (%), Thlaspi arvense (Thlaspi arvense): 97% | crop compatibility compared with comparative compounds (B) and (D), in words (wheat [1]): approximately the same compatibility | degree of damage, Wheat (Wheat [2]): 0% | degree of damage, Setaria (Setaria [3]; 60 g ai./ha): 100% | degree of damage, Setaria (Setaria [3]; 125 g ai./ha): 95% | degree of damage, Digitaria (Digitaria): 100% | degree of damage, Polygonum (Polygonum): 90% | compatibility with crop plants (wheat), in words (Wheat [4]): very good compatibility | degree of damage, Wheat (Wheat [4]; wheat, 3 weeks): 0% | pest or weed control at 30 g/ha (Avena; 30 g of ai./ha): 95% | pest or weed control at 250 g/ha (Avena; 250 g ai./ha): 99% | pest or weed control at 30 g/ha (Alopecurus; 30 g of ai./ha): 100% | pest or weed control at 250 g/ha (Alopecurus; 250 g ai./ha): 100% | degree of damage, Setaria (Setaria [5]; 30 g of ai./ha): 100% | degree of damage, Setaria (Setaria [5]; 250 g ai./ha): 99% | degree of damage, Bromus (Bromus): 100% | degree of damage, Matricaria (Matricaria): 100% | degree of damage, Echinochloa (Echinochloa): 80%
